Experiments:
[1] = Crystallization by heat-cool DSC; assay type: physicochemical; conditions: Cycle 2: 30 to 180° C. at 10° C./min; 180 to −20° C. at 2° C./min; re-heat to 250° C. at 10° C./min
Method: Polymorphic behavior of Compound 1 free form was investigated by two different heat-cool DSC cycles using free form Pattern E. A Tzero pan and a Tzero hermetic lid with a pin hole were used for this experiment. Cycle 1: 30° C. to 180° C. at 10° C./min; 180° C. to −20° C. at 20° C./min; reheat to 250° C. at 10° C./min. Cycle 2: 30° C. to 180° C. at 10° C./min; 180° C. to −20° C. at 2° C./min; reheat to 250° C. at 10° C./min.

[2] = Human Hepatocyte Stability Assay; assay type: in vitro ADME; conditions: cryopreserved hepatocytes
Method: (§1) The metabolic stability of Compound 1 was evaluated using cryopreserved hepatocytes from mice, rats, dogs, cynomolgus monkeys, and humans.
(§2) 50 μL of 1 mM intermediate solutions for each test compound was prepared by adding 5 μL of 10 mM stock solution to 45 μL of a 1:1 mixture of water and acetonitrile. A 2 μM working stocks for each test compound were prepared in incubation media, InvitroGRO™ KHB (Bio IVT, Westbury, NY, USA), by adding 2 μL of 1 mM intermediate stock to 998 μL of incubation media.
(§3) To thaw the hepatocytes, InvitroGRO™ HT thawing medium (BioIVT, Westbury, NY, USA) was prewarmed to 37° C., and 48 mL of warmed thawing medium was transferred to a sterile 50 mL conical tube. The hepatocyte vial was removed from the liquid nitrogen Dewar, and gently thawed in a water bath at 37° C. for 1-2 minutes, then the contents of the vial were emptied into a conical tube with prewarmed InvitroGRO HT medium. 1 mL of prewarmed InvitroGRO HT medium was added to each emptied hepatocyte vial to resuspend any remaining cells, and the contents were pipetted into the hepatocyte suspension. The tube containing the hepatocyte suspension was centrifuged at 50*g for 5 minutes. The supernatant was removed carefully, and the remaining pellet was resuspended by adding 1 mL of incubation media, InvitroGRO KHB, and gently shaking until there were no clumps.
(§4) Cell viability was determined using the trypan blue method. 25 μL of hepatocyte cell suspension was added to a trypan blue (TB) solution (containing 775 μL InvitroGRO KHB and 200 μL of Trypan Blue). Cell count was taken using a hemacytometer.
(§5) For mouse hepatocytes, 200 μL of hepatocytes (0.8×10^6 cells/mL) were added to the wells of a 48 well plate (Catalog No. 92048, TPP Techno Plastic Products AG, Trasadingen, Switzerland) and pre-incubated for 30 minutes at 37° C. For rat, dog, monkey, […], 200 μL of hepatocytes (2×10^6 cells/mL) were added to the wells of a 48 well plate (Catalog No. 92048, TPP Techno Plastic Products AG, Trasadingen, Switzerland) and pre-incubated for 30 minutes at 37° C.
(§6) For all species of hepatocytes, once the pre-incubation period was complete, 200 μL of 2 μM working stock of test compound was added to the wells of the plate, and the plate was vortexed on a Vibramax™ 100 (P/N 544-21200-00, Heidolph Instruments GmbH & Co. KG, Schwabach, Germany) at 500 rpm in a 37° C. CO2 incubator (Model No. 51026280, ThermoFisher Scientific, Waltham, MA, USA). At each time point of 0, 15, 30, 60, 90, and 120 minutes, 50 μL of incubation mixture was precipitated with 200 μL of acetonitrile containing internal standard.
(§7) At the end of the experiment, the samples were centrifuged at 4000 rpm for 10 minutes. […]

[3] = tested on: cryopreserved human hepatocytes; assay: Human Hepatocyte Stability Assay; assay type: in vitro ADME
Method: as §1, §2, §3, §4, §5, §6, §7

[4] = Crystallization under nitrogen flow by fast evaporation; assay type: physicochemical
Method: Based on approximate solubility results, about 10 mg of Compound 1 free form Pattern E was dissolved in suitable amount of solvents. […] Solid residues were examined for their polymorphic form.

[5] = Monkey Hepatocyte Stability Assay; assay type: in vitro ADME, cynomolgus monkey; conditions: cryopreserved hepatocytes
Method: as §1, §2, §3, §4, §5, §6, §7

[6] = tested on: cryopreserved hepatocytes from cynomolgus monkeys; assay: Monkey Hepatocyte Stability Assay; assay type: in vitro ADME, cynomolgus monkey
Method: as §1, §2, §3, §4, §5, §6, §7

COc1cc(-c2cn(C)c(=O)c(C)c2C)cc(OC)c1CN1CC[C@H](N2CCN(c3ccc(N[C@H]4CCC(=O)NC4=O)cc3F)CC2)C(F)(F)C1 [Compound 1, (S)-3-((4-(4-((S)-1-(2,6-dimethoxy-4-(1,4,5-trimethyl-6-oxo-1,6-dihydropyridin-3-yl)benzyl)-3,3-difluoropiperidin-4-yl)piperazin-1-yl)-3-fluorophenyl)amino)-piperidine-2,6-dione]
Thermal events: Glass transition [1]: Glass transition: 135.7° C.; Delta Cp:
half-life at 1 µM [2]: > 120 min
hepatocyte CLint at 1 µM ([2]; read-out: CL int cells): 4.67 µL/min/1e6 cells
CLint scaled at 1 µM ([2]; read-out: CL int in vivo): 14.4 mL/min/kg
CLhb scaled well stirred [3]: 8.4 mL/min/kg body wt.
Comments ([4]; fast evaporation under nitrogen flow, 1,4-dioxane): Gel-like sample
Comments ([4]; fast evaporation under nitrogen flow, 2-MeTHF): Gel-like sample
Comments ([4]; fast evaporation under nitrogen flow, Acetone): Gel-like sample
XRPD ([4]; fast evaporation under nitrogen flow, Acetonitrile): Pattern B
Comments ([4]; fast evaporation under nitrogen flow, DCM): Gel-like sample
Comments ([4]; fast evaporation under nitrogen flow, Ethanol): Gel-like sample
Comments ([4]; fast evaporation under nitrogen flow, Ethyl acetate): Gel-like sample
Comments ([4]; fast evaporation under nitrogen flow, THF): Gel-like sample
half-life at 1 µM [5]: 44.2 min
hepatocyte CLint at 1 µM ([5]; read-out: CL int cells): 15.7 µL/min/1e6 cells
CLint scaled at 1 µM ([5]; read-out: CL int in vivo): 56.5 mL/min/kg
CLhb scaled well stirred [6]: 24.7 mL/min/kg body wt.

— patent publication US20240245677A1, “SELECTED COMPOUNDS FOR TARGETED DEGRADATION OF BRD9” (C4 THERAPEUTICS, INC., priority 2021, published 2024)
